{"source": "the supplement of paper PMC11208160", "data": [{"experiment": "recombinant barcode read abundance after kanamycin selection (control-corrected) (log10(CPM+1)); higher = more efficient recombination; sequences stand for … in AGTGCAGAGAAAATCGGCCAGTTTTCTCTGCCTGCAGTCCGCATGCCGT…AGATTTATGCAGCGGACTGCCTTTCTCCCAAAGTGATAAACCGGACAGTATCATGGACCGGTTTTCCCGGTAATCCGTATTTGCAAGGTTGGTTTCACT; site = the 11-nt target", "procedure": "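Pooled E. coli target-specificity screen for the IS621 bridge recombinase. Each library plasmid pairs an 11-nt target (CT core) with a bridge RNA whose target-binding loop (9-nt LTG + 4-nt RTG) is reprogrammed; the rest of the 177-nt WT IS621 bridge RNA scaffold is fixed. The plasmid is co-electroporated with a WT donor plasmid; recombinase is induced with 0.1 mM IPTG and recombinants are selected on kanamycin. Recombinant barcodes are sequenced, converted to CPM, averaged over two biological replicates and corrected by the unselected control CPM. Molecule = full bridge RNA written as DNA: LTG = specificity nt 1-9, RTG = reverse complement of specificity nt 8-11, in the WT scaffold.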", "values": [{"sequence": "ATGCCATCTTGGGTTCTAACCTGTTGCCT (site ATACCATCTAG)", "recombinant barcode read abundance (log10)": 0.434}, {"sequence": "ACTTAGACTTGGGTTCTAACCTGTTGCCA (site ACTTAGACTGG)", "recombinant barcode read abundance (log10)": 0.0414}, {"sequence": "CTCTACTCTTGGGTTCTAACCTGTTGCGT (site CTCTACTCTAC)", "recombinant barcode read abundance (log10)": 0.529}, {"sequence": "GTTCGAGCTTGGGTTCTAACCTGTTGCGG (site GTTCGAGCTCC)", "recombinant barcode read abundance (log10)": 2.49}, {"sequence": "TACCCGACTTGGGTTCTAACCTGTTGCCT (site TACCTGACTAG)", "recombinant barcode read abundance (log10)": 0.00741}, {"sequence": "AGCATCTCTTGGGTTCTAACCTGTTGCCG (site AGCATCTCTCG)", "recombinant barcode read abundance (log10)": 0.222}, {"sequence": "GAGGGGACTTGGGTTCTAACCTGTTGCAG (site TCCTTCTCTAG)", "recombinant barcode read abundance (log10)": 0.307}, {"sequence": "CAAACTCCTTGGGTTCTAACCTGTTGCCT (site CAAACTCCTAT)", "recombinant barcode read abundance (log10)": 0.067}, {"sequence": "TATACAGCTTGGGTTCTAACCTGTTGCCT (site TATACAGCTAG)", "recombinant barcode read abundance (log10)": 0.592}, {"sequence": "GACGGATCTTGGGTTCTAACCTGTTGCTT (site GACGGATCTAC)", "recombinant barcode read abundance (log10)": 0.162}, {"sequence": "TAAGTACCTTGGGTTCTAACCTGTTGCCT (site GAAGTACCTAG)", "recombinant barcode read abundance (log10)": 0.029}, {"sequence": "CAGTAATCTTGGGTTCTAACCTGTTGCCT (site CAGTAATCTAG)", "recombinant barcode read abundance (log10)": 0.683}, {"sequence": "ATAAGGCCTTGGGTTCTAACCTGTTGCCT (site ATAAAGCCTAG)", "recombinant barcode read abundance (log10)": 0.102}, {"sequence": "GCAGCCTCTTGGGTTCTAACCTGTTGCGT (site ATGTGAACTCA)", "recombinant barcode read abundance (log10)": 0.00651}, {"sequence": "AACATGCCTTGGGTTCTAACCTGTTGCTT (site AACATGCCTAA)", "recombinant barcode read abundance (log10)": 0.478}, {"sequence": "AATCGGCCTTGGGTTCTAACCTGTTGCGT (site AATCGGCCTAC)", "recombinant barcode read abundance (log10)": 1.85}, {"sequence": "TAGAACTCTTGGGTTCTAACCTGTTGCCT (site TAGAACTCTCG)", "recombinant barcode read abundance (log10)": 0.0641}, {"sequence": "TAGGAAGCTTGGGTTCTAACCTGTTGCGA (site TAGAAAGCTTG)", "recombinant barcode read abundance (log10)": 0.108}, {"sequence": "GCAGCTACTTGGGTTCTAACCTGTTGCTG (site GCAGCTACTCA)", "recombinant barcode read abundance (log10)": 0.694}, {"sequence": "GTAGACACTTGGGTTCTAACCTGTTGCCG (site GTAAACACTCT)", "recombinant barcode read abundance (log10)": 0.142}, {"sequence": "TGGCTCCCTTGGGTTCTAACCTGTTGCGG (site TGGCTCCCTCG)", "recombinant barcode read abundance (log10)": 0.12}, {"sequence": "GAAGAGTCTTGGGTTCTAACCTGTTGCCT (site GGAGAGTCTAG)", "recombinant barcode read abundance (log10)": 0.233}, {"sequence": "GAGAGGTCTTGGGTTCTAACCTGTTGCTT (site GAGAGGTCTAG)", "recombinant barcode read abundance (log10)": 0.893}, {"sequence": "TTCGTTGCTTGGGTTCTAACCTGTTGCCT (site TTCGTTGCTAG)", "recombinant barcode read abundance (log10)": 0.302}, {"sequence": "AGTTGCACTTGGGTTCTAACCTGTTGCCT (site AGTTTCACTAG)", "recombinant barcode read abundance (log10)": 0.0516}, {"sequence": "GCCTGTTCTTGGGTTCTAACCTGTTGCCT (site GACTGTTCTAG)", "recombinant barcode read abundance (log10)": 0.238}, {"sequence": "GAGAATACTTGGGTTCTAACCTGTTGCGT (site GAGAATACTAC)", "recombinant barcode read abundance (log10)": 2.41}, {"sequence": "GAGACAACTTGGGTTCTAACCTGTTGCCT (site GAGACAACTAG)", "recombinant barcode read abundance (log10)": 0.173}, {"sequence": "GTATGCCCTTGGGTTCTAACCTGTTGCCT (site GTATGCCCTAG)", "recombinant barcode read abundance (log10)": 1.38}, {"sequence": "TGGGGTCCTTGGGTTCTAACCTGTTGCCT (site TGGAGTCCTAG)", "recombinant barcode read abundance (log10)": 1.52}, {"sequence": "CCTACTACTTGGGTTCTAACCTGTTGCCG (site CCTACTACTCG)", "recombinant barcode read abundance (log10)": 0.0812}, {"sequence": "CTCGCCACTTGGGTTCTAACCTGTTGCCT (site CTCGCCACTAG)", "recombinant barcode read abundance (log10)": 0.186}, {"sequence": "ACCGACCCTTGGGTTCTAACCTGTTGCAT (site ACCGACCCTAT)", "recombinant barcode read abundance (log10)": 1.67}, {"sequence": "GGCAGCTCTTGGGTTCTAACCTGTTGCTT (site GGCAGTTCTAA)", "recombinant barcode read abundance (log10)": 0.0524}, {"sequence": "TGTCTGCCTTGGGTTCTAACCTGTTGCCT (site AGTCTGCCTAG)", "recombinant barcode read abundance (log10)": 0.104}, {"sequence": "GCGGAAGCTTGGGTTCTAACCTGTTGCCT (site GAGGAAGCTAG)", "recombinant barcode read abundance (log10)": 0.192}, {"sequence": "GGAGCTCCTTGGGTTCTAACCTGTTGCCG (site GGAGCTCCTCG)", "recombinant barcode read abundance (log10)": 0.846}, {"sequence": "TAGTACGCTTGGGTTCTAACCTGTTGCAG (site TAGTAAGCTCA)", "recombinant barcode read abundance (log10)": 0.12}, {"sequence": "GTACGTCCTTGGGTTCTAACCTGTTGCTT (site GTACGTCCTAT)", "recombinant barcode read abundance (log10)": 0.374}, {"sequence": "TAGCCGGCTTGGGTTCTAACCTGTTGCTT (site TAGCCGGCTAA)", "recombinant barcode read abundance (log10)": 0.358}, {"sequence": "GAGAGGTCTTGGGTTCTAACCTGTTGCTT (site GAGAGGTCTAT)", "recombinant barcode read abundance (log10)": 1.46}, {"sequence": "GTATCAACTTGGGTTCTAACCTGTTGCCT (site GTATCAGCTAG)", "recombinant barcode read abundance (log10)": 0.0211}, {"sequence": "GAGCAGGCTTGGGTTCTAACCTGTTGCTT (site GAGCAGGCTAA)", "recombinant barcode read abundance (log10)": 0.661}, {"sequence": "CTAGTAGCTTGGGTTCTAACCTGTTGCTC (site CTAGTAGCTGA)", "recombinant barcode read abundance (log10)": 1.74}, {"sequence": "CTCAAAGCTTGGGTTCTAACCTGTTGCGA (site GGGGTCCCTAA)", "recombinant barcode read abundance (log10)": 0.189}, {"sequence": "CTAGCGACTTGGGTTCTAACCTGTTGCTG (site CTAGCGACTCA)", "recombinant barcode read abundance (log10)": 0.287}, {"sequence": "GCTGGGCCTTGGGTTCTAACCTGTTGCGA (site GATGGGCCTAC)", "recombinant barcode read abundance (log10)": 0.0848}, {"sequence": "CTTGAGCCTTGGGTTCTAACCTGTTGCGT (site CTTGAGCCTAC)", "recombinant barcode read abundance (log10)": 2.87}, {"sequence": "GAGGTATCTTGGGTTCTAACCTGTTGCGT (site GAGGTATCTTG)", "recombinant barcode read abundance (log10)": 0.303}, {"sequence": "CGGCTACCTTGGGTTCTAACCTGTTGCCT (site CTGCTACCTAG)", "recombinant barcode read abundance (log10)": 0.429}, {"sequence": "GTCCCTCCTTGGGTTCTAACCTGTTGCGT (site GTCCCTCCTAG)", "recombinant barcode read abundance (log10)": 0.156}, {"sequence": "TACGAATCTTGGGTTCTAACCTGTTGCCG (site TACGAATCTCG)", "recombinant barcode read abundance (log10)": 0.465}, {"sequence": "GAGGGAGCTTGGGTTCTAACCTGTTGCAT (site GAGGGAGCTAT)", "recombinant barcode read abundance (log10)": 2.43}, {"sequence": "GTAGTGTCTTGGGTTCTAACCTGTTGCTA (site CTAGTGTCTTA)", "recombinant barcode read abundance (log10)": 1.61}, {"sequence": "TCGAAACCTTGGGTTCTAACCTGTTGCCT (site TCGAAACCTAG)", "recombinant barcode read abundance (log10)": 0.625}, {"sequence": "GGAATGTCTTGGGTTCTAACCTGTTGCCT (site GTAATGTCTAG)", "recombinant barcode read abundance (log10)": 0.0368}, {"sequence": "ATCATTCCTTGGGTTCTAACCTGTTGCCT (site AACATACCTAG)", "recombinant barcode read abundance (log10)": 0.237}, {"sequence": "AGCTGATCTTGGGTTCTAACCTGTTGCCT (site CGCTGATCTAG)", "recombinant barcode read abundance (log10)": 0.0237}, {"sequence": "TACCGTTCTTGGGTTCTAACCTGTTGCCT (site TAACGTTCTAG)", "recombinant barcode read abundance (log10)": 0}, {"sequence": "CTAAATACTTGGGTTCTAACCTGTTGCTA (site CTAAATACTAG)", "recombinant barcode read abundance (log10)": 0.835}, {"sequence": "AGAGGTTCTTGGGTTCTAACCTGTTGCCT (site ATAGGTTCTAG)", "recombinant barcode read abundance (log10)": 0.271}, {"sequence": "AGTTTAACTTGGGTTCTAACCTGTTGCAC (site AGTTTAACTGT)", "recombinant barcode read abundance (log10)": 0.0458}, {"sequence": "GGCATCCCTTGGGTTCTAACCTGTTGCTA (site TTACAGGCTCG)", "recombinant barcode read abundance (log10)": 0.205}, {"sequence": "CTAAGGTCTTGGGTTCTAACCTGTTGCCT (site CTAAGGTCTAT)", "recombinant barcode read abundance (log10)": 0.222}, {"sequence": "ACTAGCTCTTGGGTTCTAACCTGTTGCTA (site ACTAGGTCTTA)", "recombinant barcode read abundance (log10)": 0.0229}, {"sequence": "TGTGCAACTTGGGTTCTAACCTGTTGCTG (site ATGCTTGCTTG)", "recombinant barcode read abundance (log10)": 0.353}, {"sequence": "TAGGAACCTTGGGTTCTAACCTGTTGCGT (site TAGGAACCTAC)", "recombinant barcode read abundance (log10)": 3.35}, {"sequence": "AAGCAGTCTTGGGTTCTAACCTGTTGCCT (site AAGCAGTCTAG)", "recombinant barcode read abundance (log10)": 2.5}, {"sequence": "TAGCGGACTTGGGTTCTAACCTGTTGCAT (site TAGCGGTCTAG)", "recombinant barcode read abundance (log10)": 0.0826}, {"sequence": "TTCACGGCTTGGGTTCTAACCTGTTGCCT (site TTAACGGCTAG)", "recombinant barcode read abundance (log10)": 0.223}, {"sequence": "TGTCAATCTTGGGTTCTAACCTGTTGCCT (site TGTCAATCTAG)", "recombinant barcode read abundance (log10)": 0.0947}, {"sequence": "GGATCCACTTGGGTTCTAACCTGTTGCCT (site TGATCCACTAG)", "recombinant barcode read abundance (log10)": 0.139}, {"sequence": "CAGTCTACTTGGGTTCTAACCTGTTGCCT (site CAGTCTACTAG)", "recombinant barcode read abundance (log10)": 0.115}, {"sequence": "ACTGATCCTTGGGTTCTAACCTGTTGCCT (site ACTGATCCTAG)", "recombinant barcode read abundance (log10)": 2.1}, {"sequence": "CATCCGCCTTGGGTTCTAACCTGTTGCCT (site CATCCGCCTAG)", "recombinant barcode read abundance (log10)": 1.11}, {"sequence": "CCTGACACTTGGGTTCTAACCTGTTGCGG (site CCTTACACTCC)", "recombinant barcode read abundance (log10)": 0.232}, {"sequence": "GGATACACTTGGGTTCTAACCTGTTGCGT (site GGATAGACTAC)", "recombinant barcode read abundance (log10)": 0.0769}, {"sequence": "AGAGTAACTTGGGTTCTAACCTGTTGCAC (site TCTCGTTCTTA)", "recombinant barcode read abundance (log10)": 0.063}, {"sequence": "TAGTTTCCTTGGGTTCTAACCTGTTGCGT (site TAGTTTCCTAC)", "recombinant barcode read abundance (log10)": 0.875}, {"sequence": "CACAATCCTTGGGTTCTAACCTGTTGCGT (site CACACACCTAC)", "recombinant barcode read abundance (log10)": 0.0965}, {"sequence": "CGAGAACCTTGGGTTCTAACCTGTTGCCT (site TGAGAACCTAG)", "recombinant barcode read abundance (log10)": 0.12}, {"sequence": "TGTCAAACTTGGGTTCTAACCTGTTGCCT (site TGTCAAACTAG)", "recombinant barcode read abundance (log10)": 0.298}]}]}
